{"source": "patent US20130288897A1", "about": "“SYNERGISTIC PESTICIDAL COMPOSITIONS” (Dow AgroSciences LLC, priority 2012, published 2013)", "key": {"[1]": {"system": "cotton aphid (CA) Aphis gossypii", "assay": "Cotton aphid track-sprayer test on cotton: Compound A or imidacloprid with glufosinate (Liberty) and AMS (Example XVII)", "assay_type": "in vivo", "details": "for % control / % control Negatives to zero / Colby Predicted Values: Rep 1-6", "description": "(§1) Glyphosate resistant cotton plants (Gossypium hirsutum, cv ‘DP493’) were trimmed to 1 true leaf and infested with mixed stages of cotton aphid (CA) Aphis gossypii 24 h prior to application. Mixed developmental stage CA were infested onto the upper surface of each treated leaf by transferring infested foliage from an insectary colony. Each plant was infested with approximately equal numbers of CA based on visual estimation of aphid density on the infested material. Infested plants were held in the growth chamber (L:D 16:8 and 25° C.). Glufosinate (Liberty®, Bayer CropScience, Monheim am Rhein, Germany) was mixed with water at a rate equivalent to 5 ml/L (0.4 qt/Ac). […] High rate Compound A concentrations were created by diluting Compound A technical material with acetone to achieve a 10 ppm solution. […] […] […] Nozzle height above the canopy was held constant at ca. 30 cm. Plants were evaluated after 3 days from the time of infestation by counting all live cotton aphids on each plant.\nTABLE 6 contains the calculated Colby values for combinations of treatments as well as the outcome of statistical evaluations between predicted (Colby) and actual measured values. These T-test statistics were only calculated for the 0.2 and 0.05 g/Ha rates. […] These same trends were apparent when Compound A was applied with both glufosinate and AMS."}, "[2]": {"system": "cotton aphid (CA) Aphis gossypii", "assay": "Cotton aphid track-sprayer test on cotton: Compound A or imidacloprid with Durango (glyphosate) or Durango Blank and AMS (Example XVI)", "assay_type": "in vivo", "details": "for % Control (Negatives to zero) Ave / % control Ave / Colbv predicted values Ave: average of 5 reps", "description": "as §1, with “C.). Glyphosate (Durango®, Dow AgroSciences, LLC, Indianapolis, Ind.)” for “C.). Glufosinate (Liberty®, Bayer CropScience, Monheim am Rhein, Germany)”, “to 15” for “to 5”, “ml/L (1.2” for “ml/L (0.4”, “qt/Ac). […] A glyphosate free formulation of Durango® was prepared using these same mixing instructions.” for “qt/Ac).”\n[…] Percent control for all treatments was calculated using the rep average for the untreated plants."}, "[3]": {"details": "0.0125 g In./Ha + glufosinate 0.005 ml/ml + AMS 18 mg/ml"}, "[4]": {"details": "0.05 g In./Ha + glufosinate 0.005 ml/ml"}, "[5]": {"details": "0.05 g In./Ha + glufosinate 0.005 ml/ml + AMS 18 mg/ml"}, "[6]": {"details": "0.2 g In./Ha + glufosinate 0.005 ml/ml"}, "[7]": {"details": "0.2 g In./Ha + glufosinate 0.005 ml/ml + AMS 18 mg/ml"}, "[8]": {"details": "0.2 g In./Ha, no glufosinate, no AMS"}, "[9]": {"details": "0.0125 g insecticide/Ha with Durango 0.015 ml/ml + AMS 18 g/L"}, "[10]": {"details": "0.0125 g insecticide/Ha with Durango 0.015 ml/ml"}, "[11]": {"details": "0.0125 g insecticide/Ha with Durango Blank 0.015 ml/ml + AMS 18 g/L"}, "[12]": {"details": "0.0125 g insecticide/Ha with Durango Blank 0.015 ml/ml"}, "[13]": {"details": "0.05 g insecticide/Ha with Durango 0.015 ml/ml + AMS 18 g/L, Rep 1-5"}, "[14]": {"details": "0.05 g insecticide/Ha with Durango 0.015 ml/ml + AMS 18 g/L"}, "[15]": {"details": "0.05 g insecticide/Ha with Durango 0.015 ml/ml"}, "[16]": {"details": "0.05 g insecticide/Ha with Durango Blank 0.015 ml/ml + AMS 18 g/L"}}, "note": "Where “and” joins values, the source holds several entries; their conditions need not be identical. Equal entries are not always repeated.", "data": [{"smiles": "CC(c1ccc(C(F)(F)F)nc1)S(C)(=O)=NC#N", "note": "(stereo not shown) [Compound A, [1-(6-Trifluoromethylpyridin-3-yl)ethyl](methyl)-oxido-λ^4-sulfanylidenecyanamide]", "values": [{"measurement": "% control AVE", "setting": "[1]; 0.0125 g In./Ha + glufosinate 0.005 ml/ml", "result": 57.9, "unit": "%"}, {"measurement": "% control AVE", "setting": "[1]; [3]", "result": 85.5, "unit": "%"}, {"measurement": "Colby Predicted Values Ave", "setting": "[1]; 0.0125 g In./Ha, combination with glufosinate", "result": 48.7}, {"measurement": "Colby Predicted Values Ave", "setting": "[1]; 0.0125 g In./Ha, combination with glufosinate and AMS", "result": 56.8}, {"measurement": "% control AVE", "setting": "[1]; 0.0125 g In./Ha, no glufosinate, no AMS", "result": 22.9, "unit": "%"}, {"measurement": "% control AVE", "setting": "[1]; [4]", "result": 82.1, "unit": "%"}, {"measurement": "% control AVE", "setting": "[1]; [5]", "result": 91.8, "unit": "%"}, {"measurement": "Colby Predicted Values Ave", "setting": "[1]; 0.05 g In./Ha, combination with glufosinate", "result": 63.4}, {"measurement": "Colby Predicted Values Ave", "setting": "[1]; 0.05 g In./Ha, combination with glufosinate and AMS", "result": 67.4}, {"measurement": "% control AVE", "setting": "[1]; 0.05 g In./Ha, no glufosinate, no AMS", "result": 60.2, "unit": "%"}, {"measurement": "% control AVE", "setting": "[1]; [6]", "result": 95.3, "unit": "%"}, {"measurement": "% control AVE", "setting": "[1]; [7]", "result": 96.6, "unit": "%"}, {"measurement": "Colby Predicted Values Ave", "setting": "[1]; 0.2 g In./Ha, combination with glufosinate", "result": 85.7}, {"measurement": "Colby Predicted Values Ave", "setting": "[1]; 0.2 g In./Ha, combination with glufosinate and AMS", "result": 87.7}, {"measurement": "% control AVE", "setting": "[1]; [8]", "result": 87.0, "unit": "%"}, {"measurement": "% control", "setting": "[1]; [3]", "result": "94.7% and 89.7% and 68.6% and 90.7% and 83.8% and 95.5%"}, {"measurement": "% control Negatives to zero", "setting": "[1]; [3]", "result": "94.7% and 89.7% and 68.6% and 90.7% and 83.8% and 93.9%"}, {"measurement": "% control", "setting": "[1]; [4]", "result": "81.3% and 80.2% and 72.9% and 99.2% and 77.0% and 89.4%"}, {"measurement": "% control Negatives to zero", "setting": "[1]; [4]", "result": "81.3% and 80.2% and 72.9% and 99.2% and 77.0% and 89.4%"}, {"measurement": "% control", "setting": "[1]; [5]", "result": "89.3% and 96.6% and 77.1% and 97.5% and 98.6% and 80.3%"}, {"measurement": "% control Negatives to zero", "setting": "[1]; [5]", "result": "89.3% and 96.6% and 77.1% and 97.5% and 98.6% and 80.3%"}, {"measurement": "% control", "setting": "[1]; [6]", "result": "97.3% and 95.7% and 93.2% and 94.6% and 86.4%"}, {"measurement": "% control Negatives to zero", "setting": "[1]; [6]", "result": "97.3% and 95.7% and 93.2% and 94.6% and 86.4%"}, {"measurement": "% control", "setting": "[1]; [7]", "result": "98.7% and 94.0% and 94.3% and 97.5% and 98.6% and 93.9%"}, {"measurement": "% control Negatives to zero", "setting": "[1]; [7]", "result": "98.7% and 94.0% and 94.3% and 97.5% and 98.6% and 93.9%"}, {"measurement": "Colby Predicted Values", "setting": "[1]; 0.2 g In./Ha, first block of lines (combination with glufosinate)", "result": "77.3 and 91.2 and 95.9 and 90.1 and 91.9 and 68.2"}, {"measurement": "% control", "setting": "[1]; [8]", "result": "77.3% and 87.9% and 91.4% and 86.4% and 91.9% and 68.2%"}, {"measurement": "Colby Predicted Values", "setting": "[1]; 0.2 g In./Ha, second block of lines (combination with glufosinate and AMS)", "result": "90.0 and 93.9 and 95.3 and 87.0 and 91.9 and 68.2"}, {"measurement": "% Control (Negatives to zero) Ave", "setting": "[2]; [9]", "result": 23.8, "unit": "%"}, {"measurement": "% control Ave", "setting": "[2]; [9]", "result": 11.7, "unit": "%"}, {"measurement": "Colbv predicted values Ave", "setting": "[2]; [9]", "result": 48.0}, {"measurement": "% Control (Negatives to zero) Ave", "setting": "[2]; [10]", "result": 17.4, "unit": "%"}, {"measurement": "% control Ave", "setting": "[2]; [10]", "result": 0.5, "unit": "%"}, {"measurement": "Colbv predicted values Ave", "setting": "[2]; [10]", "result": 36.6}, {"measurement": "% Control (Negatives to zero) Ave", "setting": "[2]; [11]", "result": 26.5, "unit": "%"}, {"measurement": "% control Ave", "setting": "[2]; [11]", "result": 25.1, "unit": "%"}, {"measurement": "Colbv predicted values Ave", "setting": "[2]; [11]", "result": 56.2}, {"measurement": "% Control (Negatives to zero) Ave", "setting": "[2]; [12]", "result": 15.8, "unit": "%"}, {"measurement": "% control Ave", "setting": "[2]; [12]", "result": "−22.7", "unit": "%"}, {"measurement": "Colbv predicted values Ave", "setting": "[2]; [12]", "result": 36.6}, {"measurement": "% control Ave", "setting": "[2]; 0.0125 g insecticide/Ha, no herbicide, no AMS", "result": 5.5, "unit": "%"}, {"measurement": "% control", "setting": "[2]; [13]", "result": "68.6% and 52.3% and 68.2% and 65.8% and 35.3%"}, {"measurement": "% control Negatives to zero", "setting": "[2]; [13]", "result": "68.6% and 52.3% and 68.2% and 65.8% and 35.3%"}, {"measurement": "CA Counts", "setting": "[2]; [13]", "result": "37 and 49 and 36 and 25 and 48"}, {"measurement": "% Control (Negatives to zero) Ave", "setting": "[2]; [14]", "result": 58.0, "unit": "%"}, {"measurement": "% control Ave", "setting": "[2]; [14]", "result": 58.0, "unit": "%"}, {"measurement": "Colbv predicted values Ave", "setting": "[2]; [14]", "result": 55.3}, {"measurement": "% Control (Negatives to zero) Ave", "setting": "[2]; [15]", "result": 14.2, "unit": "%"}, {"measurement": "% control Ave", "setting": "[2]; [15]", "result": 9.1, "unit": "%"}, {"measurement": "Colbv predicted values Ave", "setting": "[2]; [15]", "result": 45.2}, {"measurement": "% Control (Negatives to zero) Ave", "setting": "[2]; [16]", "result": 37.9, "unit": "%"}, {"measurement": "% control Ave", "setting": "[2]; [16]", "result": 35.5, "unit": "%"}]}]}
